A short description of data set [1]: physchem. Particulars: ta-1538 agar.
Data set [2] can be described thus: physchem. The note with it: minimal medium, phosphate buffer, pH 7.
Data set [3] relates to S. typhimurium TA1535.
Data set [4] in a line: physchem. The note with it: agar.
The test system of data set [5] is S. typhimurium TA1535. This is another data set of the same source.
Data set [6] can be described thus: Diffusion bioassay for mutagenicity with microsomal activation (procarcinogens). The note with it: agar plates.
Data set [7] deals with S. typhimurium TA1535. The description is as above. The note with it: for Cmut (minimal mutagenic concentration): brackets: one standard deviation; for Cmut threshold value (mean): diffusion method, metabolic activation, brackets: 90% confidence intervals; for Cmut /co /s: from figure.
The test system of data set [8] is S. typhimurium TA1535. The experiment in a line: Homogeneous bioassay with microsomal activation, minimum mutagenic concentration. The note with it: metabolic activation, 90% confidence intervals.
Data set [9] deals with TA-1538.
Where [10] appears, read: half-lifetime .tau.1/2 from diffusion bioassay.

Molecules are shown by their SMILES. “And” between values parts separate entries of the source, which are not always exact repeats. Equal entries are not always repeated. Where two headings read alike, the source gives them in different places.

As to `CC(=O)Nc1ccc2c(c1)Cc1ccccc1-2` [2-AAF, a-acetyl amino fluorene], the half-life in [1] is 0.446 h.

Regarding `CCOS(C)(=O)=O` [EMS, ethyl-methane-sulfonate], the half-life was 13.8 h in data set [2] and 14.5 h in data set [4] (.tau.1/2 (Table 16)). Moreover, the “C mut^hom threshold value” in data set [3] turned out to be 16.85 ± 10.85. For the same compound, the “Cmut threshold value (mean)” value in data set [5] is 20.3(13.17, 26.97) μg/ml.

Regarding `O=NN1CCCC1` [NP, nitrosopyrrolidine], the half-life in [6] is 5.1 h. Also, the “rmut (radius of mutagenic zone)” value in data set [7] (0.25 μl/disc, R = 4.25 cm, 3 days) was 1.6 ± 0.18 cm; in data set [7] (2.5 μl/disc, R = 4.25 cm, 3 days) it was 2.5 ± 0.28 cm; in [7] (10 μl/disc, R = 4.25 cm, 3 days), 3.43 ± 0.32 cm and 3.4 ± 0.32 cm; in data set [7] (25 μl/disc, R = 4.25 cm, 3 days), 3.7 ± 0.31 cm. Besides, the “Cmut (minimal mutagenic concentration)” value is recorded as 0.233(0.143, 0.344) μg/ml in data set [7] (0.25 μl, co /s 0.27 mg/ml); 0.233(0.125, 0.449) μg/ml in data set [7] (2.5 μl, co /s 2.71 mg/ml); 0.097(0.048, 0.212) μg/ml in data set [7] (10 μl, co /s 10.85 mg/ml); 0.108(0.082, 0.25) μg/ml in data set [7] (25 μl, co /s 27.1 mg/ml). Moreover, the “Cmut threshold value (mean)” value in data set [7] is 0.17(0.10, 0.37) μg/ml. For the same compound, the “C mut^hom threshold value” in data set [8] is 0.58 ± 4.8.

In the case of `COc1ccc2nc3cc(Cl)ccc3c(NCCCNCCCl)c2c1` [ICR-191], the half-life in [1] was 2.09 h. The “rmut (radius of mutagenic zone)” value is recorded as 0.73 cm in data set [9] (Co 10 mg/ml), 1.16 cm in data set [9] (Co 100 mg/ml) and 1.52 cm in data set [9] (Co 1000 mg/ml).

For the compound `CN(N=O)C(N)=O` [MNU, N-Methyl-N-nitrosourea], the half-life in data set [2] is 0.599 h; in [4] (setting [10]) it was 0.628 h. In addition, the “C mut^hom threshold value” in data set [3] is listed as 0.116 ± 2.52. In addition, the “Cmut threshold value (mean)” value in data set [5] is on record as 0.27(0.13, 0.45) μg/ml.

In the case of `CC(=O)OCN(C)N=O` [AcDMN, Acetoxydimethylnitrosoamine], the half-life is 30.4 h in [2], 34.1 h in data set [4] (.tau.1/2 Parametrically) and 19.1 h in data set [4] (setting [10]). Further, the “C mut^hom threshold value” in data set [3] was found to be 1.01 ± 1.48. In data set [5], the “Cmut threshold value (mean)” value is reported as 1.7(1.07, 3.53) μg/ml. In addition, the “half-lifetime .tau.1/2 from diffusion bioassay” value in data set [5] (agar) is 34.5 h.

`O=NN1CCOCC1` [NM, N-nitrosomorpholine] had a half-life in data set [6] of 6 h. Also, the “rmut (radius of mutagenic zone)” value in data set [7] (0.25 μl/disc, R = 4.25, TA 1535) is 1.31 ± 0.12 cm and 1.31 ± 0.1 cm; in [7] (2.5 μl/disc, R = 4.25, TA 1535) it was 2.25 ± 0.12 cm; in data set [7] (25 μl/disc, R = 4.25, TA 1535) it was 3.6 ± 0.12 cm and 3.6 ± 0.3 cm. In addition, the “rmut /R” value in [7] (0.25 μl, co /s 0.29 mg/ml, R = 4.25 cm) is recorded as 0.3 ± 0.02; in data set [7] (2.5 μl, co /s 0.91 mg/ml, R = 4.25 cm), 0.52 ± 0.02; in data set [7] (25 μl, co /s 29.1 mg/ml, R = 4.25 cm) it was 0.84 ± 0.07. For the same compound, the “Cmut (minimal mutagenic concentration)” value in data set [7] (0.25 μl, co /s 0.29 mg/ml) was 0.64(0.436, 0.785) μg/ml; in [7] (2.5 μl, co /s 0.91 mg/ml), 0.699(0.465, 0.902) μg/ml; in [7] (25 μl, co /s 29.1 mg/ml), 0.276(0.119, 0.505) μg/ml. The Cmut /co /s is 2.2 × 10^-3 in [7] (0.25 μl, co /s 0.29 mg/ml); 2.4 × 10^-4 in [7] (2.5 μl, co /s 0.91 mg/ml); 9.5 × 10^-6 in data set [7] (25 μl, co /s 29.1 mg/ml). The “Cmut threshold value (mean)” value in data set [7] was 0.54(0.23, 0.80) μg/ml. Further, the “C mut^hom threshold value” in data set [8] turned out to be 0.7 ± 3.6.

In general, half-life refers to the time in which the quantity being followed falls by half.

(Values after US4352880A (priority 1979, dated 1982).)
